Here are results for four compounds from ChEMBL document CHEMBL4219068 (Bioorg Med Chem, 2018).

The source made the active and inactive calls. The calls are words filed in the database; no cut-off is given here.

Series [1] can be described thus: Drug level in pH 7.4 PBS treated with apomorphine at 8 to 50 uM measured up to 24 hrs by HPLC analysis. To be noted: buffer, pH 7.4, 24 h. The class given is physicochemical.
Series [2] has as its target Amyloid-beta precursor protein (Homo sapiens) (UniProt P05067). Kind of series: Inhibition of amyloid beta (1 to 42) (unknown origin) aggregation by Thioflavin-T fluorescence assay.
For series [3] the target is unchanged. Description: Inhibition of amyloid beta (1 to 42) (unknown origin) aggregation at 0.25 to 50 uM after 48 hrs by uranyl acetate staining based transmission electron microscopic method.
Series [4] can be described thus: Drug metabolism in pH 7.4 PBS assessed as auto-oxidization by measuring 6-methyl-5,6-dihydro-4H-dibenzo[de,g]quinoline-10,11-dione level at 50 uM measured after 0 hrs by HPLC analysis. To be noted: buffer, pH 7.4, 0 h. The class given is physicochemical.
Series [5] in a line: Drug metabolism in pH 7.4 PBS assessed as auto-oxidization by measuring 6-methyl-5,6-dihydro-4H-dibenzo[de,g]quinoline-10,11-dione level at 50 uM measured after 8 hrs by HPLC analysis. The class given is physicochemical. To be noted: buffer, pH 7.4, 8 h.
Series [6] concerns the target Amyloid-beta precursor protein (Homo sapiens) (UniProt P05067). Description: Inhibition of amyloid beta (1 to 42) (unknown origin) aggregation at 5 uM by Thioflavin-T fluorescence assay. To be noted: TDE = time-dependent effect.
The target is the same in series [7]. Kind of series: Inhibition of amyloid beta (1 to 42) (unknown origin) aggregation at 5 uM in presence of reductant TCEP by Thioflavin-T fluorescence assay.
Series [8] shares this target. Kind of series: Inhibition of amyloid beta (1 to 42) (unknown origin) aggregation at 5 uM after 48 hrs by Thioflavin-T fluorescence assay relative to control.
Series [9] shares this target. Description: Binding affinity to amyloid beta (1 to 42) (unknown origin) assessed as retention time for amyloid beta (1 to 42) (Lys28)-compound adduct at 250 uM after 1 hr by LC/Q Tof-MS analysis.
Series [10] shares this target. Kind of series: Binding affinity to amyloid beta (1 to 42) (unknown origin) assessed as retention time for amyloid beta (1 to 42) (Lys16)-compound adduct at 250 uM after 1 hr by LC/Q Tof-MS analysis.
Series [11] has the same target. Kind of series: Binding affinity to amyloid beta (1 to 42) (unknown origin) assessed as retention time for amyloid beta (1 to 42) - 6-methyl-5,6-dihydro-4H-dibenzo[de,g]quinoline-10,11-dione adduct at 250 uM after 1 hr by LC/Q Tof-MS analysis.
Series [12] has the same target. Kind of series: Binding affinity to amyloid beta (9 to 35) E22P M35ox mutant (unknown origin) oxidized at M35 residue assessed as E22P M35ox(Lys16/Lys28)-compound adduct formation at 250 uM after 1 hr by LC/Q Tof-MS analysis.
The target is the same in series [13]. Kind of series: Inhibition of HFIP pretreated amyloid beta (1 to 42) (unknown origin) aggregation assessed as time for nucleation phase of aggregation at 5 uM by Thioflavin-T fluorescence assay (reference value: 4 to 5 hrs).
The target is the same in series [14]. Kind of series: Inhibition of amyloid beta (1 to 42) (unknown origin)-mediated toxicity in human SH-SY5Y cells at 500 uM preincubated with amyloid beta (1 to 42) for 30 mins followed by addition to cells measured after 24 hrs by MTT assay. The class given is cell-based. Background: Tetrazolium dyes change colour on reduction, which living cells bring about.

A short description of series [15]: Drug metabolism in pH 7.4 PBS assessed as auto-oxidization by measuring 6-methyl-5,6-dihydro-4H-dibenzo[de,g]quinoline-10,11-dione level at 50 uM measured after 1 hr by HPLC analysis. The class given is physicochemical. To be noted: buffer, pH 7.4, 1 h.
A short description of series [16]: Drug metabolism in pH 7.4 PBS assessed as auto-oxidization by measuring 6-methyl-5,6-dihydro-4H-dibenzo[de,g]quinoline-10,11-dione level at 50 uM measured after 2 hrs by HPLC analysis. The class given is physicochemical. To be noted: buffer, pH 7.4, 2 h.
Series [17] in a line: Drug metabolism in pH 7.4 PBS assessed as auto-oxidization by measuring 6-methyl-5,6-dihydro-4H-dibenzo[de,g]quinoline-10,11-dione level at 50 uM measured after 4 hrs by HPLC analysis. The class given is physicochemical. To be noted: buffer, pH 7.4, 4 h.
Series [18] in a line: Drug metabolism in pH 7.4 PBS assessed as auto-oxidization by measuring 6-methyl-5,6-dihydro-4H-dibenzo[de,g]quinoline-10,11-dione level at 50 uM measured after 24 hrs by HPLC analysis. The class given is physicochemical. To be noted: buffer, pH 7.4, 24 h.
Series [19] can be described thus: Drug level in pH 7.4 PBS treated with apomorphine at 50 uM measured after 8 hrs by HPLC analysis. The class given is physicochemical. To be noted: buffer, pH 7.4, 8 h.
Series [20] is described as follows: Drug level in pH 7.4 PBS treated with apomorphine at 8 uM measured immediately by HPLC analysis. The class given is physicochemical. To be noted: buffer, pH 7.4, 8 µM.
Series [21] is described as follows: Drug level in pH 7.4 PBS treated with apomorphine at 50 uM up to 8 hrs by UV-Visible spectroscopic analysis. To be noted: buffer, pH 7.4, 8 h. The class given is physicochemical.
Series [22] has as its target Amyloid-beta precursor protein (Homo sapiens) (UniProt P05067). Description: Binding affinity to amyloid beta (1 to 42) (unknown origin) assessed as retention time for amyloid beta (1 to 42)-compound adduct formation at 250 uM after 1 hr by LC/Q Tof-MS analysis.
A short description of series [23]: Drug level in pH 7.4 PBS at 50 uM measured after 0 hrs by HPLC analysis. To be noted: buffer, pH 7.4, 0 h. The class given is physicochemical.
The nature of series [24]: Drug level in pH 7.4 PBS at 50 uM measured after 1 hr by HPLC analysis. To be noted: buffer, pH 7.4, 1 h. The class given is physicochemical.
Series [25] is described as follows: Drug level in pH 7.4 PBS at 50 uM measured after 2 hrs by HPLC analysis. The class given is physicochemical. To be noted: buffer, pH 7.4, 2 h.
Series [26] can be described thus: Drug level in pH 7.4 PBS at 50 uM measured after 4 hrs by HPLC analysis. The class given is physicochemical. To be noted: buffer, pH 7.4, 4 h.
Series [27] is described as follows: Drug level in pH 7.4 PBS at 50 uM measured after 8 hrs by HPLC analysis. The class given is physicochemical. To be noted: buffer, pH 7.4, 8 h.
Series [28] is described as follows: Drug level in pH 7.4 PBS at 50 uM measured after 24 hrs by HPLC analysis. The class given is physicochemical. To be noted: buffer, pH 7.4, 24 h.
Series [29] is described as follows: Drug level in pH 7.4 PBS at 50 uM measured after 48 hrs by HPLC analysis. The class given is physicochemical. To be noted: buffer, pH 7.4, 48 h.

Amyloid-beta precursor protein (Homo sapiens), sequence (P05067 whole entry): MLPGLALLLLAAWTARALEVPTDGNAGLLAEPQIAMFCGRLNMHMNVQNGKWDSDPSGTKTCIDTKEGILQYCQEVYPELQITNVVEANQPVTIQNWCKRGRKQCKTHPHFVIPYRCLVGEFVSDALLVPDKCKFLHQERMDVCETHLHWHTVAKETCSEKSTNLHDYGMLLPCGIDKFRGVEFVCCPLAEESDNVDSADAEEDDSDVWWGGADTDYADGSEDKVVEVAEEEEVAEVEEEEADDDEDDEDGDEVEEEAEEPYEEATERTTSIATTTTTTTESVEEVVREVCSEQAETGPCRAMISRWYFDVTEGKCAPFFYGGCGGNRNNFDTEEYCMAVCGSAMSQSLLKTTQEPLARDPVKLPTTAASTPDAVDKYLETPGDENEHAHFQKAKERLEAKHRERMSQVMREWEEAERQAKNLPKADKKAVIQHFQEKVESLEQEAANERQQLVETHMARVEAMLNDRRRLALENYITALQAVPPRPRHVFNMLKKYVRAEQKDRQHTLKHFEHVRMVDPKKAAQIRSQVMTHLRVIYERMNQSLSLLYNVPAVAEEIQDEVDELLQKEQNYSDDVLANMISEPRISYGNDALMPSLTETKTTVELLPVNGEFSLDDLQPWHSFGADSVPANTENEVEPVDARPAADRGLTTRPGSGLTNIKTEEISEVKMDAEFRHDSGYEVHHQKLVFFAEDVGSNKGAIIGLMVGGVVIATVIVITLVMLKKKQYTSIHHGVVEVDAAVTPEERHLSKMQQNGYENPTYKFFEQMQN

For `CNCCc1cccc2c3c(ccc12)C=CC(=O)C3=O`, the Drug metabolism result in series [1] was “Metabolite_Detected”.
A word on the inhibition: it is the drop in the measured response relative to a control, in per cent. Turning to `CN1CCc2cccc3c2[C@H]1Cc1ccc(O)c(O)c1-3` [APOMORPHINE], the inhibition result in [2] is “Dose-dependent effect”; in [6] it was “Tde”; in [8] it was greater than 50%. Moreover, in series [3], the inhibition entry is “Active”. For the same compound, the Drug metabolism in series [4] came out at 8 µM; in [5], 50 µM; in series [15], 23 µM; in [16] it was 32 µM; in [17], 47 µM; in [18], 25 µM. Moreover, the inhibition result in series [7] and in series [14] was “inactive” each time. Moreover, the results for the Retention time in series [9] and in [10] were 6.9 min and 6.4 min, respectively. The outcome in [11] and in [12] was Active. Further, in series [13], the TIME fell in the range of 6 to 7 h.
On to `CN1CCc2cccc3c2C1=CC(=O)C3=O`, for which the Drug metabolism result in series [1] was “Metabolite_Detected”.
For `CN1CCc2cccc3c4c(cc1c23)C=CC(=O)C4=O`, the Drug metabolism result in series [19], in series [20] and in series [21] was “Metabolite_Detected” each time. Besides, the inhibition entry in [6] was “Tde”; in series [8] it was greater than 50%. Moreover, the result in series [22] was inactive. The TIME in series [13] fell in the range of 6 to 7 h. Also, the inhibition entry in series [14] is “inactive”. Also, the Drug uptake in series [23] came out at 31 µM; in [24] it was 24 µM; in [25], 22 µM; in [26] it was 24 µM; in series [27] it was 24 µM; in [28], 19 µM. In series [29], this compound returned a Drug uptake of 15 µM.
